biological target: T1, androgen receptor (AR) (Homo sapiens, UniProt P10275, T878A); assay: Androgen-induced PSA (6.1 kb)-luciferase reporter assay in LNCaP cells (R1881 1 nM); type: cell-based; parameters: endogenous in cells; host or cells: LNCaP; settings: 24 h, read-out: PSA-Luc IC50 Range
T1 sequence (P10275 1-920 T878A): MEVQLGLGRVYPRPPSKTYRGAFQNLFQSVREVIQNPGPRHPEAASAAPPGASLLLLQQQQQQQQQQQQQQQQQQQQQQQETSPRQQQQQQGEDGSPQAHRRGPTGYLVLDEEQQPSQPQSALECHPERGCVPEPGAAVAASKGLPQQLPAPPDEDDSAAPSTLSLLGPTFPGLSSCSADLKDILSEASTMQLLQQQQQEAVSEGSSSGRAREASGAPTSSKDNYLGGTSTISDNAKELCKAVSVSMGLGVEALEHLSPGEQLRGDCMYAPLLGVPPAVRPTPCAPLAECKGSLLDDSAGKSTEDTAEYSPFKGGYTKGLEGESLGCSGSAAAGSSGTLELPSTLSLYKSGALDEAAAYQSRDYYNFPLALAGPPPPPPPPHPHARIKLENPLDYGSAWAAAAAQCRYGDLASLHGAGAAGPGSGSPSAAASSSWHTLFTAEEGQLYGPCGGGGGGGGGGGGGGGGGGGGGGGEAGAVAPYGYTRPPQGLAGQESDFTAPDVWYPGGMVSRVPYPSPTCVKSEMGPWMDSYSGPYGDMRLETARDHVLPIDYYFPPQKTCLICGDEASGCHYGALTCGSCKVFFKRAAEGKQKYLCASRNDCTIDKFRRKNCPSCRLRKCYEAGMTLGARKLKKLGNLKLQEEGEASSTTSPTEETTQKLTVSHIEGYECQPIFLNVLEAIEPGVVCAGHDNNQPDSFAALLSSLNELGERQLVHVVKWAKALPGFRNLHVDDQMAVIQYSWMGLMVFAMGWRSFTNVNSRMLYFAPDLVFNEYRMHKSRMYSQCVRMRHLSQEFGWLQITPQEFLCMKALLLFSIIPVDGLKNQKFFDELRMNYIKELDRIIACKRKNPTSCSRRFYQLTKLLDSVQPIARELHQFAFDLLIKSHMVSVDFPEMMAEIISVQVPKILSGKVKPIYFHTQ
Method: The PSA (6.1 kb)-luciferase reporter contains functional AREs (androgen response elements) to which AR binds in response to androgen to induce luciferase activity. LNCaP cells were transiently transfected with the PSA (6.1 kb)-luciferase reporter for 24 h, and then pretreated with vehicle (DMSO) or indicated concentration of representative compounds for one hour prior to the addition of synthetic androgen, R1881 (1 nM). After 24 h of incubation with R1881, the cells were harvested, and relative luciferase activities were determined (FIG. 1). To determine the IC50, treatments were normalized to vehicle control activity induced by R1881 (Table 2).
Luciferase Assay: Cells were lysed using Passive Lysis Buffer (Promega) and then collected into V-bottom 96-well tissue culture plates. Lysates were centrifuged at 4° C. for 5 minutes at 3000 rpm. To measure luminescence of LNCaP cell lysates the Firefly Luciferase Assay System (Promega) was employed, according to manufacturer's protocol. Relative luminescence units (RLU) in cell lysates were detected for 10 seconds using Promega GloMax-Multi Detection Luminometer (Promega). Values were normalized to protein content. GraphPad Prism graphing software was used to calculate IC50 values.
Statistical analyses were performed using GraphPad Prism (Version 6.01 for Windows; La Jolla, Calif., USA). Comparisons between treatment and control groups were compared using Two-Way ANOVA with post-hoc Dunnett's and Tukey's tests. Differences were considered statistically significant at P values less than 0.05.

`CS(=O)(=O)N1CC(F)(COc2ccc3c(ccn3-c3cc(Cl)c(OCCCl)c(C#N)c3)c2)C1` [Compound A137] and `CS(=O)(=O)N1CC2(CC(Oc3ccc4c(ccn4-c4cc(Cl)c(OCCCl)c(C#N)c4)c3)C2)C1` [Compound A163] fall in the same range of IC50: 500 to 2000 nM for the first, 500 to 2000 nM for the second.

`CC(C)(c1ccc(-c2ccc3c(NS(C)(=O)=O)ncnc3c2)cc1)c1cc(Cl)c(OCCCl)c(C#N)c1` [Compound A197] and `CC(C)(c1ccc(-c2ccc3cnc(NS(C)(=O)=O)nc3c2)cc1)c1cc(Cl)c(OCCCl)c(C#N)c1` [Compound A121] cannot be ordered by IC50: over 2000 nM for the first, over 2000 nM for the second.

`CS(=O)(=O)Nc1ncc2c(n1)CCN(Cc1ccc3c(ccn3-c3cc(Cl)c(OCCCl)c(C#N)c3)c1)C2` [Compound A154] and `CS(=O)(=O)NCC1CN(Cc2ccc3c(ccn3-c3cc(Cl)c(OCCCl)c(C#N)c3)c2)CCO1` (stereo not shown) [Compound A170] cannot be ordered by IC50: over 2000 nM for the first, over 2000 nM for the second.

`CS(=O)(=O)n1cc(COc2ccc3c(ccn3-c3cc(Cl)c(OCCCl)c(C#N)c3)c2)cn1` [Compound A52] and `CS(=O)(=O)Nc1ncc(COc2ccc3c(ccn3-c3cc(Cl)c(OCCCl)c(C#N)c3)c2)cn1` [Compound A29, N-(5-(((1-(3-chloro-4-(2-chloroethoxy)-5-cyanophenyl)-1H-indol-5-yl)oxy)methyl)pyrimidin-2-yl)methanesulfonamide] fall in the same range of IC50: 500 to 2000 nM for the first, 500 to 2000 nM for the second.

`CC(C)(c1ccc(OCc2ccnc(NS(C)(=O)=O)n2)cc1)c1cc(Cl)c(NCCCl)c(C#N)c1` [Compound A66] and `CC(C)(c1ccc(OCc2ccnc(NS(C)(=O)=O)n2)cc1)c1cc(Cl)c(OCCCCl)c(C#N)c1` [Compound A181] fall in the same range of IC50: 500 to 2000 nM for the first, 500 to 2000 nM for the second.

First: CS(=O)(=O)N[C@H]1C[C@@H](COc2ccc3c(ccn3-c3cc(Cl)c(OCCCl)c(C#N)c3)c2)C1 [Compound A136]
Second: CS(=O)(=O)N[C@H]1CC[C@@H](COc2ccc3c(ccn3-c3cc(Cl)c(OCCCl)c(C#N)c3)c2)CC1 [Compound A208]
The IC50 of the first is lower: 500 to 2000 nM for the first, over 2000 nM for the second. The first is the more potent here.

`CC(C)(c1ccc(OCc2cnc(NS(C)(=O)=O)nc2N2CCNCC2)cc1)c1cc(Cl)c(OCCCl)c(C#N)c1` [Compound A120] and `CC(C)(c1ccc(OCc2ncc(NS(C)(=O)=O)nc2N)cc1)c1cc(Cl)c(OCCCl)c(C#N)c1` [Compound A43] cannot be ordered by IC50: under 500 nM for the first, under 500 nM for the second.

`CS(=O)(=O)Nc1ccn(CCc2ccc3c(ccn3-c3cc(Cl)c(OCCCl)c(C#N)c3)c2)c(=O)c1` [Compound A81] and `CS(=O)(=O)NCC1CCN1CCc1ccc2c(ccn2-c2cc(Cl)c(OCCCl)c(C#N)c2)c1` (stereo not shown) [Compound A248] cannot be ordered by IC50: over 2000 nM for the first, over 2000 nM for the second.

Compared with `CS(=O)(=O)N1CC2CC(Oc3ccc4c(ccn4-c4cc(Cl)c(OCCCl)c(C#N)c4)c3)CC2C1` (stereo not shown) [Compound A223], `CS(=O)(=O)N1CCC[C@@H](COc2ccc3c(ccn3-c3cc(Cl)c(OCCCl)c(C#N)c3)c2)C1` [Compound A204] is higher in IC50: 500 to 2000 nM for the first, over 2000 nM for the second. The first is the more potent here.

`CC(CO)(c1ccc(OCc2ccnc(NS(C)(=O)=O)n2)cc1)c1cc(Cl)c(OCCCl)c(C#N)c1` (stereo not shown) [Compound A89] and `CC(C)(c1ccc(OCc2ccnc(NS(C)(=O)=O)n2)cc1)c1cc(Cl)c(OCC(O)CCl)c(C#N)c1` (stereo not shown) [Compound A258] cannot be ordered by IC50: over 2000 nM for the first, over 2000 nM for the second.

Compared with `CC(C)(c1ccc(-c2ccn3c(S(C)(=O)=O)c(N)nc3c2)cc1)c1cc(Cl)c(OCCCl)c(C#N)c1` [Compound A112], `CC(C)(c1ccc(-c2ccc3oc(NS(C)(=O)=O)nc3c2)cc1)c1cc(Cl)c(OCCCl)c(C#N)c1` [Compound A255] is lower in IC50: over 2000 nM for the first, 500 to 2000 nM for the second.

`CC(C)(c1ccc(-c2ccc3nc(NS(C)(=O)=O)oc3n2)cc1)c1cc(Cl)c(OCCCl)c(C#N)c1` [Compound A282] and `CC(C)(c1ccc(-c2ccc3oc(NS(C)(=O)=O)nc3n2)cc1)c1cc(Cl)c(OCCCl)c(C#N)c1` [Compound A281] cannot be ordered by IC50: over 2000 nM for the first, over 2000 nM for the second.

First: CS(=O)(=O)NC12CC(COc3ccc4c(c3)CCCC4c3cc(Cl)c(OCCCl)c(C#N)c3)(C1)C2 (stereo not shown) [Compound A247]
Second: CC(C)(c1ccc(OCC23CCC(NS(C)(=O)=O)(C2)C3)cc1)c1cc(Cl)c(OCCCl)c(C#N)c1 [Compound A271]
The IC50 of the first is higher: over 2000 nM for the first, 500 to 2000 nM for the second. The second is the more potent here.

Compared with `CS(=O)(=O)Nc1nccc(COc2ccc(-n3ccc4c(C#N)c(OCCCl)c(C#N)cc43)cc2)n1` [Compound A75], `CS(=O)(=O)Nc1nccc(COc2ccc3c(ccn3-c3cc(C#N)c(OCCCl)c(C(F)(F)F)c3)c2)n1` [Compound A21] is lower in IC50: over 2000 nM for the first, 500 to 2000 nM for the second.

`CC(C)(c1ccc(OCc2ccnc(NS(C)(=O)=O)n2)cc1)c1cc(Cl)c(N2CC3(CCC3)C2)c(C#N)c1` [Compound A267] and `CC(C)(c1ccc(OCc2ccnc(NS(C)(=O)=O)n2)cc1)c1cc(Cl)c(N2CCC(CO)CC2)c(C#N)c1` [Compound A90] fall in the same range of IC50: 500 to 2000 nM for the first, 500 to 2000 nM for the second.

First: CCCOc1ncc(C(C)(C)c2ccc(OCc3ccnc(NS(C)(=O)=O)n3)cc2)cc1Cl [Compound A104]
Second: CC(C)(c1ccc(OCc2ccnc(NS(C)(=O)=O)n2)cc1)c1cc(F)c(N2CCCCC2)c(C#N)c1 [Compound A261]
The IC50 of the first is higher: over 2000 nM for the first, 500 to 2000 nM for the second. The second is the more potent here.

First: CS(=O)(=O)NC12CC(CNc3ccc4c(ccn4-c4cc(Cl)c(OCCCl)c(C#N)c4)c3)(C1)C2 [Compound A146]
Second: CS(=O)(=O)N1CCO[C@@H](COc2ccc3c(ccn3-c3cc(Cl)c(OCCCl)c(C#N)c3)c2)C1 [Compound A205]
The IC50 of the first is lower: 500 to 2000 nM for the first, over 2000 nM for the second. The first is the more potent here.

Compared with `CS(=O)(=O)CCOc1c(Cl)cc(-n2ccc3cc(OCc4ccnc(NS(C)(=O)=O)n4)ccc32)cc1C#N` [Compound A72], `CS(=O)(=O)Nc1nccc(COc2ccc3c(ccn3-c3cc(Cl)c(OC4CCC4)c(C#N)c3)c2)n1` [Compound A189] is lower in IC50: over 2000 nM for the first, 500 to 2000 nM for the second. The second is the more potent here.

First: N#Cc1cc(-n2ccc3cc(OCc4c[nH]nn4)ccc32)cc(Cl)c1OCCCl [Compound A54]
Second: CS(=O)(=O)Nc1nccc(COc2ccc3c(cnn3-c3cc(Cl)c(OCCCl)c(C#N)c3)c2)n1 [Compound A60]
The IC50 of the first is lower: 500 to 2000 nM for the first, over 2000 nM for the second. The first is the more potent here.

First: CC(C)(c1ccc(-c2cnc3c(c2)CCCC3NS(C)(=O)=O)cc1)c1cc(Cl)c(OCCCl)c(C#N)c1 (stereo not shown) [Compound A216]
Second: CC(C)(c1ccc(-c2cnc3c(c2)OCCN3S(C)(=O)=O)cc1)c1cc(Cl)c(OCCCl)c(C#N)c1 [Compound A229]
The IC50 of the first is higher: over 2000 nM for the first, 500 to 2000 nM for the second.

`CC(C)(c1ccc(-c2ccc3nc(NS(C)(=O)=O)nc(N4CCOCC4)c3c2)cc1)c1cc(Cl)c(OCCCl)c(C#N)c1` [Compound A196] and `CC(C)(c1ccc(-c2ccc3c(NS(C)(=O)=O)nccc3n2)cc1)c1cc(Cl)c(OCCCl)c(C#N)c1` [Compound A278] fall in the same range of IC50: 500 to 2000 nM for the first, 500 to 2000 nM for the second.

First: CC(=O)Nc1cnc(COc2ccc(C(C)(C)c3cc(Cl)c(OCCCl)c(C#N)c3)cc2)c(NS(C)(=O)=O)n1 [Compound A76]
Second: CC(C)(c1ccc(-c2cnc3c(NS(C)(=O)=O)nccc3n2)cc1)c1cc(Cl)c(OCCCl)c(C#N)c1 [Compound A280]
The IC50 of the first is lower: under 500 nM for the first, 500 to 2000 nM for the second.

`CS(=O)(=O)NC1CCN(CCOc2ccc3c(ccn3-c3cc(Cl)c(OCCCl)c(C#N)c3)c2)CC1` [Compound A220] and `CS(=O)(=O)NCC1CCN(Cc2ccc3c(ccn3-c3cc(Cl)c(OCCCl)c(C#N)c3)c2)CC1` [Compound A236] cannot be ordered by IC50: over 2000 nM for the first, over 2000 nM for the second.

Compared with `CC(C)(c1ccc(OCc2cccc(S(C)(=O)=O)c2)cc1)c1cc(Cl)c(OCCCl)c(C#N)c1` [Compound A47], `CS(=O)(=O)Nc1nccc(COc2ccc3c(c2)COC3c2cc(Cl)c(OCCCl)c(C#N)c2)n1` (stereo not shown) [Compound A85] is higher in IC50: 500 to 2000 nM for the first, over 2000 nM for the second.

`CS(=O)(=O)Nc1nccc(COc2ccc3c(-c4cc(Cl)c(OCCCl)c(C#N)c4)ncnc3c2)n1` [Compound A18] and `CC(c1cc(Cl)c(OCCCl)c(C#N)c1)n1ccc(-c2ccc3nc(NS(C)(=O)=O)ncc3c2)n1` (stereo not shown) [Compound A142] cannot be ordered by IC50: over 2000 nM for the first, over 2000 nM for the second.

`CN(C1CCN(Cc2ccc3c(ccn3-c3cc(Cl)c(OCCCl)c(C#N)c3)c2)CC1)S(C)(=O)=O` [Compound A237] and `CS(=O)(=O)Nc1nccc(COc2ccc3c(ccn3-c3ccn(CCCCl)c(=O)c3)c2)n1` [Compound A115] cannot be ordered by IC50: over 2000 nM for the first, over 2000 nM for the second.
